pEC50: −log10 of the molar value.
Columns and labels:
[1] = biological target: Peptidyl-prolyl cis-trans isomerase FKBP1A (Homo sapiens, UniProt P62942); test: Binding affinity for FK506 binding protein 12 using [3H]-dihydro FK-506 radioligand was determined
[2] = tested on: Rattus norvegicus; test: Nephrotoxic potential was tested in spontaneously hypertensive rats by administering 40 mg/kg/day intraperitoneally for 5 days; format: functional; details: route intraperitoneal
[3] = tested on: Mus musculus; test: Neurotoxic activity was determined by measuring compound-induced hypothermia in BALB/c mice, after administering intravenously in mouse.; format: functional; details: iv
[4] = tested on: Mus musculus; test: Immunosuppressive activity was determined by ex vivo murine-based model of immunosuppression, compound was administered intravenously in mouse.; format: functional; details: iv
[5] = tested on: Mus musculus; test: Immunosuppressive activity was determined by ex vivo murine-based model of immunosuppression, compound was administered perorally in mouse.; format: functional; details: po
[6] = tested on: Rattus norvegicus; test: Nephrotoxic potential was tested in spontaneously hypertensive rats by administering 10 mg/kg/day intraperitoneally for 5 days; format: functional; details: route intraperitoneal
[7] = tested on: Rattus norvegicus; test: Nephrotoxic potential was tested in spontaneously hypertensive rats by administering 20 mg/kg/day intraperitoneally for 5 days; format: functional; details: route intraperitoneal
[8] = Therapeutic index was determined as mouse hypothermia ED50/murine ex vivo ED50; details: read-out: Therapeutic index
[9] = tested on: Rattus norvegicus; test: Nephrotoxic potential was tested in spontaneously hypertensive rats by administering 0 mg/kg/day intraperitoneally for 5 days; format: functional; details: route intraperitoneal

Peptidyl-prolyl cis-trans isomerase FKBP1A, sequence (P62942 whole entry): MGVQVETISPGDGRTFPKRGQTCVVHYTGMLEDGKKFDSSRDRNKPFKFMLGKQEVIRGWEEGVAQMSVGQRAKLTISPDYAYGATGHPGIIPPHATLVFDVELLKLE

CC[C@@H]1/C=C(\C)C[C@H](C)C[C@H](OC)[C@H]2O[C@@](O)(C(=O)C(=O)N3CCCC[C@H]3C(=O)O[C@H](/C(C)=C/[C@@H]3CC[C@@H](OC/C=C/c4ccccc4)[C@H](OC)C3)[C@H](C)[C@@H](O)CC1=O)[C@H](C)C[C@@H]2OC
pEC50 [1]: 7.52

CC[C@@H]1/C=C(\C)C[C@H](C)C[C@H](OC)[C@H]2O[C@@](O)(C(=O)C(=O)N3CCCC[C@H]3C(=O)O[C@H](/C(C)=C/[C@@H]3CC[C@@H](OCOCc4ccccc4)[C@H](OC)C3)[C@H](C)[C@@H](O)CC1=O)[C@H](C)C[C@@H]2OC
pEC50 [1]: 7.92

CC[C@@H]1/C=C(\C)C[C@H](C)C[C@H](OC)[C@H]2O[C@@](O)(C(=O)C(=O)N3CCCC[C@H]3C(=O)O[C@H](/C(C)=C/[C@@H]3CC[C@@H](OCc4nccn4Cc4ccccc4)[C@H](OC)C3)[C@H](C)[C@@H](O)CC1=O)[C@H](C)C[C@@H]2OC
pEC50 [1]: 8.13

CC[C@@H]1/C=C(\C)C[C@H](C)C[C@H](OC)[C@H]2O[C@@](O)(C(=O)C(=O)N3CCCC[C@H]3C(=O)O[C@H](/C(C)=C/[C@@H]3CC[C@@H](OCc4nc(-c5ccccc5)c[nH]4)[C@H](OC)C3)[C@H](C)[C@@H](O)CC1=O)[C@H](C)C[C@@H]2OC
pEC50 [1]: 7.66

C=CC[C@@H]1/C=C(\C)C[C@H](C)C[C@H](OC)[C@H]2O[C@@](O)(C(=O)C(=O)N3CCCC[C@H]3C(=O)O[C@H](/C(C)=C/[C@@H]3CC[C@@H](O)[C@H](OC)C3)[C@H](C)[C@@H](O)CC1=O)[C@H](C)C[C@@H]2OC [TACROLIMUS ANHYDROUS]
BUN [2]: 76 mg/dL | ED50 [3]: 3.5 mg/kg | ED50 [4]: 0.24 mg/kg | ED50 [5]: 2.6 mg/kg | BUN [6]: 22 mg/dL | BUN [7]: 43 mg/dL | selectivity ratio [8]: 15 | BUN [9]: 20 mg/dL
